Assays:
FRK = molecular target: T1, FRK (Homo sapiens, UniProt P42685); assay: Off-chip Mobility Shift Assay, kinase inhibition; format: biochemical; conditions: recombinant FRK; for inhibition at 0.001 µM: at 1 nM; for inhibition at 0.01 µM: at 10 nM
T1 construct: purchased Carna Biosciences, Inc

ABL(E255K) = molecular target: T2, ABL(E255K) (Homo sapiens, UniProt P00519, E255K); assay: Off-chip Mobility Shift Assay, kinase inhibition; format: biochemical; conditions: recombinant ABL(E255K); for inhibition at 0.001 µM: at 1 nM; for inhibition at 0.01 µM: at 10 nM
T2 construct: purchased Carna Biosciences, Inc

[1] = Metabolic stability in human liver microsomes; format: in vitro ADME; conditions: for metabolic stability compared to dasatinib: human liver microsomes; for In vitro t1/2: 1 μM, human liver microsomes 0.5 mg/mL, NADPH and UDPGA, 37° C.
Experimental: FIG. 1. Metabolic stability of compounds in human liver microsomal incubations. […] Concentrations at specified times were determined by LC-MS/MS.
The incubation reactions at various time points were quenched by adding 2× volumes of acetonitrile containing 100 nM reserpine. The quenched incubation samples were centrifuged at 4000 RPM for 10 min, and the supernatants injected for LC/MS/MS analysis. LC/MS/MS analysis was carried out on a AB Sciex 4000 Q Trap LC/MS/MS system coupled with Shimadzu Prominence UFLCXR 20 series (including a CBM-20A controller, two LC-20ADXR solvent delivery units, SIL-20AC HT autosampler, CTO-20A column oven, and a SPD-20A UV detector).

SU-DHL-4 = assay: Cell inhibition assay (PrestoBlue, 48 h); format: cell-based; conditions: Homo sapiens, SU-DHL-4, 48 h, SU-DHL-4 diffuse large B-cell lymphoma cells, read-out: IC50, inhibition of growth
YES = molecular target: T3, YES (Homo sapiens, UniProt P07947); assay: Off-chip Mobility Shift Assay, kinase inhibition; format: biochemical; conditions: recombinant YES; for inhibition at 0.001 µM: at 1 nM; for inhibition at 0.01 µM: at 10 nM
T3 construct: purchased Carna Biosciences, Inc

EPHA1 = molecular target: T4, EPHA1 (Homo sapiens, UniProt P21709); assay: Off-chip Mobility Shift Assay, kinase inhibition; format: biochemical; conditions: recombinant EPHA1; for inhibition at 0.001 µM: at 1 nM; for inhibition at 0.01 µM: at 10 nM
T4 construct: purchased Carna Biosciences, Inc
T4 sequence (P21709 26-976): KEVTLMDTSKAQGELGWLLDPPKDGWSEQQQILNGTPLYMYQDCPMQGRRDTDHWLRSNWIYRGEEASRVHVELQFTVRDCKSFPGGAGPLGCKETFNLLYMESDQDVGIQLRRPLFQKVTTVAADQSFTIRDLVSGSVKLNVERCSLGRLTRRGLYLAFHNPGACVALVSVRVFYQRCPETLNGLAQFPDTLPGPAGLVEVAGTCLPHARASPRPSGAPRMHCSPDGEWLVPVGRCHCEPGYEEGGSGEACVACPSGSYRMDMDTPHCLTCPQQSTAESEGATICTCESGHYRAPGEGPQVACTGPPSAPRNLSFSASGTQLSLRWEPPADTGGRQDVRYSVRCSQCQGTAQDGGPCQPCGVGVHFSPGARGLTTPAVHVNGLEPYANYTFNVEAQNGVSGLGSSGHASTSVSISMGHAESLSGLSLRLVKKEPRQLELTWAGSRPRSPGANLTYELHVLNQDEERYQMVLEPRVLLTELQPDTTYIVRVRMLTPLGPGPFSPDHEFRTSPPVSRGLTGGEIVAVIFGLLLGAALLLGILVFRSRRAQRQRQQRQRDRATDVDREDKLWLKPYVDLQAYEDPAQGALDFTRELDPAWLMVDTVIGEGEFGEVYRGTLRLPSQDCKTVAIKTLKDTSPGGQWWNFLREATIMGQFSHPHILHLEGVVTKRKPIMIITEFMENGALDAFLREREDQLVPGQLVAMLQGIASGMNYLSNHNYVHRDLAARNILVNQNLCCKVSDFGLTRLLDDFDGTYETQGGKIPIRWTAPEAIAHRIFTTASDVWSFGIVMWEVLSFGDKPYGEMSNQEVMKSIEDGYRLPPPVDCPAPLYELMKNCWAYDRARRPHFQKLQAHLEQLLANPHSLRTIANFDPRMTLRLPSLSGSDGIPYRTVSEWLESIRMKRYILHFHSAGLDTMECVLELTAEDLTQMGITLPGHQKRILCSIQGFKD

FGR = molecular target: T5, FGR (Homo sapiens, UniProt P09769); assay: Off-chip Mobility Shift Assay, kinase inhibition; format: biochemical; conditions: recombinant FGR; for inhibition at 0.001 µM: at 1 nM; for inhibition at 0.01 µM: at 10 nM, read-out: inhibition
T5 construct: purchased Carna Biosciences, Inc

PIK3CA/PIK3R1 = molecular target: T6, PIK3CA/PIK3R1 (Homo sapiens, UniProt P42336); assay: Off-chip Mobility Shift Assay, kinase inhibition; format: biochemical; conditions: recombinant PIK3CA/PIK3R1; for inhibition at 0.01 µM: at 10 nM
T6 construct: purchased Carna Biosciences, Inc

TEC = molecular target: T7, TEC (Homo sapiens, UniProt P42680); assay: Off-chip Mobility Shift Assay, kinase inhibition; format: biochemical; conditions: at 1 nM; recombinant TEC
T7 construct: purchased Carna Biosciences, Inc
T7 sequence (P42680 1-631): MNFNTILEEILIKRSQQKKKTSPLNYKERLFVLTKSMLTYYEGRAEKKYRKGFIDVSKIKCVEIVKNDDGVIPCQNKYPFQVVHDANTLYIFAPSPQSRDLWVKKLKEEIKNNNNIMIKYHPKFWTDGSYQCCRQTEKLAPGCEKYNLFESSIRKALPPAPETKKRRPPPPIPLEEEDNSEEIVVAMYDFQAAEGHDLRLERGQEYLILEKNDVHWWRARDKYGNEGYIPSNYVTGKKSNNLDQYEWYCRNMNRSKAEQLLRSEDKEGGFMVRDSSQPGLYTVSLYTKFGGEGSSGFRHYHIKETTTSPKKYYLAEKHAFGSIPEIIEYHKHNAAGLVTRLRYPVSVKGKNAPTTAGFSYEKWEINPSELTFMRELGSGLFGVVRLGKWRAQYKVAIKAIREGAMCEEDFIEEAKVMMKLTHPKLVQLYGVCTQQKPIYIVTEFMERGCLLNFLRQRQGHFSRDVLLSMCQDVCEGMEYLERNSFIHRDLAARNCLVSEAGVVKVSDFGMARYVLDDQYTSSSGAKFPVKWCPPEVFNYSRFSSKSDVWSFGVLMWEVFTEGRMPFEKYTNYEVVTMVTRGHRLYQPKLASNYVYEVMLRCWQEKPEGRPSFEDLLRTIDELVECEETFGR

T6 sequence (P42336 whole entry): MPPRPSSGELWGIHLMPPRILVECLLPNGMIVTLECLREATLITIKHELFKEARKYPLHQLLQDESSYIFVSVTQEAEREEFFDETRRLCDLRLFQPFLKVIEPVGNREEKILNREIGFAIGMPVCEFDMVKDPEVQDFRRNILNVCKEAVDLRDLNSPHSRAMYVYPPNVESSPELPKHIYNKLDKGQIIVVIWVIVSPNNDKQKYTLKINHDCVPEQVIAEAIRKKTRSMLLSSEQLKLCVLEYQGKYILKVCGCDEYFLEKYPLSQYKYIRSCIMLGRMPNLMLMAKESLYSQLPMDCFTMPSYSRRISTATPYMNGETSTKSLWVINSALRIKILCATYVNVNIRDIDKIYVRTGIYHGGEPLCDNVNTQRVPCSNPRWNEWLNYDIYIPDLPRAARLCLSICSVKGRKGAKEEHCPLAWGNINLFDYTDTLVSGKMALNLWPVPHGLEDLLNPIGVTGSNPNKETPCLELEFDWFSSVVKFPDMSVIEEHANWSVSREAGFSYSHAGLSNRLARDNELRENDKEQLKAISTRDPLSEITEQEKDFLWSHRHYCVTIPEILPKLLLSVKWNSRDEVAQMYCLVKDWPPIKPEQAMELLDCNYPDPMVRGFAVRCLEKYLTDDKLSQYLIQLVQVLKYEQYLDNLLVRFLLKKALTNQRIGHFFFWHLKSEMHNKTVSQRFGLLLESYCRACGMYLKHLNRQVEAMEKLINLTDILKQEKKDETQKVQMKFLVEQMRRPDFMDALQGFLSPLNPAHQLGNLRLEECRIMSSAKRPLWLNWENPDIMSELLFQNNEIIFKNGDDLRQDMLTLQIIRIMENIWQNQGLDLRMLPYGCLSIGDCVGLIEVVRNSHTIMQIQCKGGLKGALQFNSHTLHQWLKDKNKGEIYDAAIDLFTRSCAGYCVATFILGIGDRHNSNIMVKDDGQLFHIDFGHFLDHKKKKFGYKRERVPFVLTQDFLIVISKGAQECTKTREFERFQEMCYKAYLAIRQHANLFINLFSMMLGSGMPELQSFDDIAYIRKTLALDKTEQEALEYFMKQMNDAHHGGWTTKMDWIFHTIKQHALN
T6 sequence (P27986 whole entry partner): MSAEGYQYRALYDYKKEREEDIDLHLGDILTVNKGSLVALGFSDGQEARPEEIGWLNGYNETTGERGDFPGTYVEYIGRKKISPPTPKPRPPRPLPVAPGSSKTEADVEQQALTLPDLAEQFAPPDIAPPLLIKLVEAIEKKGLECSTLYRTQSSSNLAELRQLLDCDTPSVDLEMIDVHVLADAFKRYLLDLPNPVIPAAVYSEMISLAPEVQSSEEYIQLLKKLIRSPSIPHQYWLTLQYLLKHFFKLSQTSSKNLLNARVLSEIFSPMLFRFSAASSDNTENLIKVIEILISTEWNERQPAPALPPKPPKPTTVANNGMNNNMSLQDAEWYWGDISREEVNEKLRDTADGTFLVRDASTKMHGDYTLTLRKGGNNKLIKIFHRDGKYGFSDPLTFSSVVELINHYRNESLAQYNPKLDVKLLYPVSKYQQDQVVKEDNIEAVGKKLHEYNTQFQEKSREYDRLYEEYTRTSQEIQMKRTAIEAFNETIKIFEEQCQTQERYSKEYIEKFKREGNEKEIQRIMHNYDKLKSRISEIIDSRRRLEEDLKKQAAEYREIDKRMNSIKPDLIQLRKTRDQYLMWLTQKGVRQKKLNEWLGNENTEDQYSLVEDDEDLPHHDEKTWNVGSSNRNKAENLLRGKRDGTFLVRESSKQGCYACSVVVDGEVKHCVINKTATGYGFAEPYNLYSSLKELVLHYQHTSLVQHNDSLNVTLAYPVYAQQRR
T2 sequence (P00519 whole entry E255K): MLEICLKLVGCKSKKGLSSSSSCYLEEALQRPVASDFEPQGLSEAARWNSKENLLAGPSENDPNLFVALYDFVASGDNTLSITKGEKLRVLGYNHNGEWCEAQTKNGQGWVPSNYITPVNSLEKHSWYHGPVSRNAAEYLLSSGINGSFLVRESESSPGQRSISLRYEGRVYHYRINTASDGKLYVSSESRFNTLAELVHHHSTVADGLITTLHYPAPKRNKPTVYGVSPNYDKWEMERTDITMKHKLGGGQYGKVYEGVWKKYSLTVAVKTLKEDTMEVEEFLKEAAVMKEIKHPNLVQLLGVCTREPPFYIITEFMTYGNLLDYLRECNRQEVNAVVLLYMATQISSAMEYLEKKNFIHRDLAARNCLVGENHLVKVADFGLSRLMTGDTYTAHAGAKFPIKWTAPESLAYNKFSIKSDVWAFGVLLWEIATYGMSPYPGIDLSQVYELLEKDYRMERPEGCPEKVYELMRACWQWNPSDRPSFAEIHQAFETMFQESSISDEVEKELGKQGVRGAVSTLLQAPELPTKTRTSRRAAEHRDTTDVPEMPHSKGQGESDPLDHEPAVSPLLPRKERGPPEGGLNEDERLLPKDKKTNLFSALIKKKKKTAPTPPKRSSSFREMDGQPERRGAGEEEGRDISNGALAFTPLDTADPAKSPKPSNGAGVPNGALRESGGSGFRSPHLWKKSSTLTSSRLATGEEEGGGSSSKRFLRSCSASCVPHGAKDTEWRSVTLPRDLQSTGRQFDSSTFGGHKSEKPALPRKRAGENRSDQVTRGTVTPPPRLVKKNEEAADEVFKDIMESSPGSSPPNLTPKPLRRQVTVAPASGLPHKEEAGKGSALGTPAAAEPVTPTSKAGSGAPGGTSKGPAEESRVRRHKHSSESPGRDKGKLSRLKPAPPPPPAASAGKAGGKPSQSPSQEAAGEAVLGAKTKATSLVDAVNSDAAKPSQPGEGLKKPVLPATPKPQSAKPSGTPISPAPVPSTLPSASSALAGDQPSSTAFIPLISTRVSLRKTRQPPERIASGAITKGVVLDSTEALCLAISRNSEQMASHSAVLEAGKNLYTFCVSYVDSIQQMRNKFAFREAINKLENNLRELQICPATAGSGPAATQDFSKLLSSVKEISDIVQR
T5 sequence (P09769 whole entry): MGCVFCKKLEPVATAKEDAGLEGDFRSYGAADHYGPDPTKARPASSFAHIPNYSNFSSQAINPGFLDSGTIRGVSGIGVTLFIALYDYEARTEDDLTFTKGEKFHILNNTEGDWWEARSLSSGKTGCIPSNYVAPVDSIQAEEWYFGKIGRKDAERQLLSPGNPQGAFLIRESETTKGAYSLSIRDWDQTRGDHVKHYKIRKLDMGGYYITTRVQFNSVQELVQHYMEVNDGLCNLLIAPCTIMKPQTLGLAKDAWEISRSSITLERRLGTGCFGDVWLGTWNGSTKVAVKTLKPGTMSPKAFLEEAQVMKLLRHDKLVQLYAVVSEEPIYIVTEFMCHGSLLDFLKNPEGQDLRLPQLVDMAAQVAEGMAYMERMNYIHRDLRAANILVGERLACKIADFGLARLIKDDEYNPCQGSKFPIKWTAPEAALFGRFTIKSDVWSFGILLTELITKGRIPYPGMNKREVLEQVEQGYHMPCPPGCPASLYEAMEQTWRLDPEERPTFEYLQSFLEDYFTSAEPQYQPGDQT
T3 sequence (P07947 whole entry): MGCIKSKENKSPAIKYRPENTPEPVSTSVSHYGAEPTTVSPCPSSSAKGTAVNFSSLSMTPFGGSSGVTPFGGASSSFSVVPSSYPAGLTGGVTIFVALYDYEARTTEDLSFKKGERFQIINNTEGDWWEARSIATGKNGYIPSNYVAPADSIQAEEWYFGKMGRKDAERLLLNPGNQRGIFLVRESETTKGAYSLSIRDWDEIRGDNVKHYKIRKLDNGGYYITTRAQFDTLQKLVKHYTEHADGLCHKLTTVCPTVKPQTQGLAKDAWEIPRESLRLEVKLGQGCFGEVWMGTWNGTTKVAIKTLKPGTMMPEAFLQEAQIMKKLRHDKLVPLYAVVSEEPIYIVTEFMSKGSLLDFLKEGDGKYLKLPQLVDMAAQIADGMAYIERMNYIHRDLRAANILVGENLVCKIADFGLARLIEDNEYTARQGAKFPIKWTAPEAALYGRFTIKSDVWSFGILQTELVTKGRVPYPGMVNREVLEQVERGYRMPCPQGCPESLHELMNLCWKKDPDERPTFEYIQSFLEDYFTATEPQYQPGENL
T1 sequence (P42685 whole entry): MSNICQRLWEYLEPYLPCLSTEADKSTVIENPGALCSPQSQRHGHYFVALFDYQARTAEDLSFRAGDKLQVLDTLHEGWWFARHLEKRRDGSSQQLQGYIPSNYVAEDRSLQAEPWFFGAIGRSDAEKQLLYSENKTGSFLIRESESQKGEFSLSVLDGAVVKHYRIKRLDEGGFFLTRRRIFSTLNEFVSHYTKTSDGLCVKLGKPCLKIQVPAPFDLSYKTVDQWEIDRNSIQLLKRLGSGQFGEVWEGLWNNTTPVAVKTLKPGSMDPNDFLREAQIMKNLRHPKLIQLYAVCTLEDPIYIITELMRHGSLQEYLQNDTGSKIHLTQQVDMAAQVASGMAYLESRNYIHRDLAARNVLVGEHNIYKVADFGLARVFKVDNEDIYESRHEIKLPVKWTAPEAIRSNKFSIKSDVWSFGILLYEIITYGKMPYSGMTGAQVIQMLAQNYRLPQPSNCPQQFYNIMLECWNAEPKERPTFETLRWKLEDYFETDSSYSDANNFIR

Row | Compound | inhibition at 0.001 µM (FRK) [%] | inhibition at 0.01 µM (FRK) [%] | inhibition at 0.001 µM (ABL(E255K)) [%] | inhibition at 0.01 µM (ABL(E255K)) [%] | metabolic stability compared to dasatinib [1] | IC50 (SU-DHL-4) [nM] | inhibition at 0.001 µM (YES) [%] | inhibition at 0.01 µM (YES) [%] | inhibition at 0.001 µM (EPHA1) [%] | inhibition at 0.01 µM (EPHA1) [%] | inhibition at 0.001 µM (FGR) [%] | inhibition at 0.01 µM (FGR) [%] | inhibition at 0.01 µM (PIK3CA/PIK3R1) [%] | inhibition at 0.001 µM (TEC) [%] | inhibition at 0.001 µM (PIK3CA/PIK3R1; at 1 nM) [%] | inhibition at 0.1 µM (PIK3CA/PIK3R1; at 100 nM) [%] | In vitro t1/2 [1] [h]
1 | [2H]c1cc(C)c(NC(=O)c2cnc(Nc3cc(N4CCCCC4)nc(C)n3)s2)c(Cl)c1 [Compound I, N-(2-chloro-4-deuterio-6-methyl-phenyl)-2-[[2-methyl-6-(1-piperidyl)pyrimidin-4-yl]amino]thiazole-5-carboxamide] | > 50 | > 50 | > 50 | > 50 | significantly greater stability | < 20 | > 50 | > 50 | > 50 | > 50 | > 50 | > 50 | > 50 | – | – | – | –
2 | [2H]c1cc(C)c(NC(=O)c2cnc(Nc3cc(N4CCC(O)CC4)nc(C)n3)s2)c(Cl)c1 [Compound II, N-(2-chloro-4-deuterio-6-methyl-phenyl)-2-[[6-(4-hydroxy-1-piperidyl)-2-methyl-pyrimidin-4-yl]amino]thiazole-5-carboxamide] | > 50 | > 50 | > 50 | > 50 | – | < 20 | > 50 | > 50 | > 50 | > 50 | > 50 | > 50 | > 50 | > 50 | < 50 | < 50 | –
3 | [2H]c1cc(C)c(NC(=O)c2cnc(Nc3cc(N4CC[C@H](O)C4)nc(C)n3)s2)c(Cl)c1 [Compound IV, N-(2-chloro-4-deutero-6-methylphenyl)-2-[[2-methyl-6-((S)-3-hydroxypyrrolidin-1-yl)pyrimidin-4-yl]amino]thiazole-5-carboxamide] | – | > 50 | > 50 | > 50 | significantly greater stability | < 20 | > 50 | > 50 | – | > 50 | – | > 50 | > 50 | > 50 | – | – | 1.47
4 | Cc1nc(Nc2ncc(C(=O)Nc3c(C)cccc3Cl)s2)cc(N2CCC(O)CC2)n1 [Compound IX, N-(2-chloro-6-methylphenyl)-2-[[2-methyl-6-(4-hydroxypiperidin-1-yl)pyrimidin-4-yl]amino]thiazole-5-carboxamide] | – | > 50 | > 50 | > 50 | – | < 20 | > 50 | > 50 | – | > 50 | – | > 50 | > 50 | > 50 | – | – | –
5 | [2H]c1cc(C)c(NC(=O)c2cnc(Nc3cc(N4CC[C@@H](O)C4)nc(C)n3)s2)c(Cl)c1 [Compound V, N-(2-chloro-4-deutero-6-methylphenyl)-2-[[2-methyl-6-((R)-3-hydroxypyrrolidin-1-yl)pyrimidin-4-yl]amino]thiazole-5-carboxamide] | – | > 50 | > 50 | > 50 | significantly greater stability | < 20 | > 50 | > 50 | – | > 50 | – | > 50 | > 50 | > 50 | – | – | 1.12
6 | [2H]c1cc(C)c(NC(=O)c2cnc(Nc3cc(N4CC[C@H](N)C4)nc(C)n3)s2)c(Cl)c1 [Compound VI, N-(2-chloro-4-dutero-6-methylphenyl)-2-[[2-methyl-6-((S)-3-aminopyrrolidin-1-yl)pyrimidin-4-yl]amino]thiazole-5-carboxamide] | – | > 50 | > 50 | > 50 | significantly greater stability | < 20 | > 50 | > 50 | – | > 50 | – | > 50 | > 50 | > 50 | – | – | –
7 | [2H]c1cc(C)c(NC(=O)c2cnc(Nc3cc(N4CC[C@@H](N)C4)nc(C)n3)s2)c(Cl)c1 [Compound VII, N-(2-chloro-4-deutero-6-methylphenyl)-2-[[2-methyl-6-((R)-3-aminopyrrolidin-1-yl)pyrimidin-4-yl]amino]thiazole-5-carboxamide] | – | > 50 | > 50 | > 50 | significantly greater stability | < 20 | > 50 | > 50 | – | > 50 | – | > 50 | > 50 | > 50 | – | – | –
8 | Cc1nc(Nc2ncc(C(=O)Nc3c(C)cccc3Cl)s2)cc(N2CCCCC2)n1 [Compound VIII, N-(2-chloro-6-methylphenyl)-2-[[2-methyl-6-(piperidin-1-yl)pyrimidin-4-yl]amino]thiazole-5-carboxamide] | – | > 50 | > 50 | > 50 | significantly greater stability | < 20 | > 50 | > 50 | – | > 50 | – | > 50 | > 50 | > 50 | – | – | –

— patent publication US10479786B2, “Protein kinase inhibitors” (Princeton Drug Discovery Inc, priority 2016, dated 2019)
